Laboratory results taken from ChEMBL document CHEMBL1157315, “Saponins from Polygala japonica and their effects on a forced swimming test in mice” (2006).

How the values were obtained:
Mus musculus [1] = assay: Antidepressant activity in ICR mouse assessed as reduction in immobility time of forced swimming at 10 mg/kg, po administered once daily for 5 days by forced swimming test relative to control; type: functional; design: scale not given: the % may be the effect or the level left
Mus musculus [2] = assay: Antidepressant activity in ICR mouse assessed as reduction in immobility time of forced swimming at 100 mg/kg, po administered once daily for 5 days by forced swimming test relative to control; type: functional; design: scale not given: the % may be the effect or the level left

| SMILES | Activity (Mus musculus [1]) [%] | Activity (Mus musculus [2]) [%] |
| --- | --- | --- |
| CNCCC(Oc1ccc(C(F)(F)F)cc1)c1ccccc1 (configuration not stated) [FLUOXETINE] | 50.7 | – |
| C[C@@H]1O[C@@H](O[C@H]2[C@H](OC(=O)[C@]34CCC(C)(C)C[C@H]3C3=CC[C@@H]5[C@@]6(C)C[C@H](O)[C@H](O)[C@@](C)(C(=O)O)[C@@H]6CC[C@@]5(C)[C@]3(C)CC4)O[C@H](CO)[C@@H](O)[C@@H]2O)[C@H](O)[C@H](O[C@H]2OC[C@@](O)(CO)[C@@H]2O)[C@H]1O[C@@H]1OC[C@@H](O)[C@H](O)[C@H]1O [POLYGALASAPONIN H] | 45.8 | 51.3 |
| C[C@@H]1O[C@@H](O[C@H]2[C@H](OC(=O)[C@]34CCC(C)(C)C[C@H]3C3=CC[C@@H]5[C@@]6(C)C[C@H](O)[C@H](O[C@@H]7O[C@H](CO)[C@@H](O)[C@H](O)[C@H]7O)[C@](C)(CO)[C@@H]6CC[C@@]5(C)[C@]3(C)CC4)O[C@H](CO)[C@@H](O[C@@H]3OC[C@@H](O)[C@H](O)[C@H]3O)[C@@H]2O[C@@H]2OC[C@](O)(CO)[C@H]2O)[C@H](O)[C@H](O)[C@H]1O [POLYGALASAPONIN V] | 16.8 | 16.6 |
| C[C@@H]1O[C@@H](O[C@H]2[C@H](OC(=O)[C@]34CCC(C)(C)C[C@H]3C3=CC[C@@H]5[C@@]6(C)C[C@H](O)[C@H](O)[C@@](C)(C(=O)O)[C@@H]6CC[C@@]5(C)[C@]3(C)CC4)O[C@H](CO)[C@@H](O)[C@@H]2O)[C@H](O)[C@H](O)[C@H]1O[C@@H]1OC[C@@H](O)[C@H](O)[C@H]1O [POLYGALASAPONIN E] | 35.4 | 58.1 |
